Data: patent EP3720857B1, “2-OXO-5H-CHROMENO[4,3-B]PYRIDINES FOR USE IN THE TREATMENT OF HEPATITIS B” (Galapagos NV, priority 2017, dated 2019)

Test system: hepatitis virus B (HBV) infection
Test: HepG2 NTCP assay (HBcAg staining as marker of HBV infection)
Format: cell-based
Settings: HepG2-NTCP cells infected with HBV, HBV core antigen (HBcAg) as marker of infection
Method in brief: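 HepG2-NTCP cells were infected with HBV (4% PEG, 1% DMSO) in the presence of compound overnight, then re-dosed and incubated 5 days at 37 °C. HBcAg immunofluorescence was imaged, with DAPI nuclei count taken as toxicity. Ten-point 1/3 dilutions gave % inhibition against 0.2% DMSO vehicle and 100 nM Myrcludex B, with dose-response curves fitted.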

Row | Compound | IC50 [nM]
1 | COCCCOc1cc2c(cc1F)-c1c(cc(C(=O)O)c(=O)n1C1CC1)C(C(C)C)O2 (stereo not drawn) [Compound 1, 1-cyclopropyl-9-fluoro-5-isopropyl-8-(3-methoxypropoxy)-2-oxo-5H-chromeno[4,3-b]pyridine-3-carboxylic acid] | 0.001 to 1
2 | COCCCOc1cc2c(cc1Cl)-c1c(cc(C(=O)O)c(=O)n1C1CC1)CO2 [Compound 6, 9-chloro-1-cyclopropyl-8-(3-methoxypropoxy) -2-oxo-5H-chromeno[4,3-b]pyridine-3-carboxylic acid] | 0.001 to 1
3 | CCC1Oc2cc(OCCCOC)c(F)cc2-c2c1cc(C(=O)O)c(=O)n2C1CC1 (stereo not drawn) [Compound 16, 1-cyclopropyl-5-ethyl-9-fluoro-8-(3-methoxypropoxy) -2-oxo-5H-chromeno[4,3-b]pyridine-3-carboxylic acid] | 0.001 to 1
4 | COCCCOc1cc2c(cc1Cl)-c1c(cc(C(=O)O)c(=O)n1C1CC1)C(C(C)(C)COC)O2 (stereo not drawn) [Compound 19, 9-chloro-1-cyclopropyl-5-(2-methoxy-1,1-dimethyl-ethyl)-8-(3-methoxypropoxy) -2-oxo-5H-chromeno[4,3-b]pyridine-3-carboxylic acid] | 0.001 to 1
5 | COCCCOc1cc2c(cc1F)-c1c(cc(C(=O)O)c(=O)n1C1CC1)[C@H](C(C)C)O2 [Compound 44, (5S)-1-cyclopropyl-9-fluoro-5-isopropyl-8-(3-methoxypropoxy)-2-oxo-5H-chromeno[4,3-b]pyridine-3-carboxylic acid] | 0.001 to 1
6 | COCCCOc1cc2c(cc1Cl)-c1c(cc(C(=O)O)c(=O)n1C1CC1)[C@H](C1(C)COC1)O2 [Compound 46, (5R)-9-chloro-1-cyclopropyl-8-(3-methoxypropoxy)-5-(3-methyloxetan-3-yl)-2-oxo-5H-chromeno[4,3-b]pyridine-3-carboxylic acid] | 0.001 to 1
